Consider one compound from article PMC10286312, “Elimination Resistance: Characterizing Multi-compartment Toxicokinetics of the Neonicotinoid Thiacloprid in the Amphipod Gammarus pulex Using Bioconcentration and Receptor-Binding Assays” (Environmental Science & Technology, 2023).

The structures appear in SMILES notation.

The target in this experiment is T1, nAChRs (nicotinic acetylcholine receptors) in G. pulex membrane protein extract.
T1 construct: gene nAChR alpha; native whole-animal crude membrane protein pellet (43,000g)
Kind of experiment: equilibrium binding to membrane protein, unlabelled ligand, ultracentrifugation, online-SPE LC-HRMS/MS. The arrangement: species or system Gammarus pulex. The conditions noted are these: 10 mM Tris-HCl pH 7.4, 23 °C, 2 h; one-site specific binding model; no displacement control described; read-out: best fit. From the text:
equilibrium binding to membrane protein, unlabelled ligand, ultracentrifugation, online-SPE LC-HRMS/MS on nAChRs (nicotinic acetylcholine receptors) in G. pulex membrane protein extract

As to `N#C/N=C1\SCCN1Cc1ccc(Cl)nc1` [thiacloprid], the Kd was 0.41 nM.
